Measurements taken from patent US12310946B2, “Pharmaceutical composition for oral administration of edaravone and method of administering same” (MITSUBISHI TANABE PHARMA CORPORATION, priority 2020, dated 2025).
Where two headings read alike, the source gives them in different places.

Tests used:
[1] = Clinical study #3: PK of edaravone oral formulation (formula #3), fasted vs after high-fat, standard or light meal; analysis of variance; assay type: in vivo, human; conditions: 105 mg oral; for Cmax Max: in ng/mL; for AUC(0-inf) / Cmax / Tmax / half-life: male, human, plasma, po, 105 mg
Experimental: Effects of meal consumption before administration of the edaravone oral formulation on the pharmacokinetics of edaravone were evaluated. Specifically, clinical studies #1, #2, and #3 described below were conducted on separate days in Japanese healthy adult male subjects. In each of clinical studies #1, #2, and #3, one dose each of edaravone oral formulations (edaravone suspensions) of formulas #1, #2, and #3 shown in Table 1 below were used respectively and administered orally once during the study period. For each clinical study, a reference study was conducted (reference example), in which the edaravone oral formulation was administered in fasted conditions as described below, and in each clinical study and the corresponding reference study, the edaravone oral formulation was each administered to the same subjects.
For the high-fat meal, a meal with total calories per meal of 800 to 1000 kilocalories and calorie intake from lipid of 50% was used. For the standard meal, a meal with total calories per meal of 400 to 500 kilocalories and calorie intake from lipid of 25% was used. For the light meal, a liquid-type nutritional supplement with total calories per meal of 250 kilocalories (enteral nutritional supplement: Ensure Liquid (trade name)) was used.
As examples, the edaravone oral formulation (formula #3) was administered orally to each subject of 8 hours after high-fat meal consumption, 4 hours after standard meal consumption, and 2 hours after light meal consumption. Blood samples were each collected before the administration, and 5 minutes, 15 minutes, 30 minutes, 45 minutes, 1 hour, 1.5 hours, 2 hours, 4 hours, 6 hours, 8 hours, 10 hours, 12 hours, 24 hours, 36 hours, and 48 hours after the administration, and the concentrations of unchanged edaravone in plasma were measured. In addition, as a comparative example, the edaravone oral formulation was administered orally to the same subjects 2 hours after standard meal consumption, blood samples were collected, and the concentrations of unchanged edaravone in plasma were measured in the same manner. On the other hand, as a reference example, the edaravone oral formulation was administered orally to the same subjects in fasted conditions, blood samples were collected, and the concentrations of unchanged edaravone in plasma were measured in the same manner. For the administration in fasted conditions, the edaravone oral formulation was administered orally after a lapse of 10 hours or longer from the previous meal consumption. None of the subjects consumed a next meal until the blood sample collection 4 hours after the administration was completed.
That is, from the results of the edaravone PK parameters, an analysis of variance was conducted on the AUC and Cmax in consideration of the meal condition. The spaghetti plots in FIG. 1 show results from individual subjects, in which results from the same subjects are connected with lines between results in the administration in fasted conditions and results in the postprandial administration.

[2] = test system: transporters P-gp and BCRP expressed in Caco-2 cells; assay: Caco-2 transcellular transport study, efflux ratio with and without P-gp and BCRP inhibitors; assay type: in vitro ADME; conditions: Caco-2 cells
Experimental: (§1) Cell membrane permeability is known to be constant regardless of the concentration of the substance when no transporter is involved. The control compounds, propranolol and mannitol, are not substrates for transporters P-gp and BCRP expressed in Caco-2 cells, and thus the values of the permeability coefficient are not considered to change depending on the concentrations used in the test. Thus, further, the following study was conducted to confirm that edaravone is not a substrate for transporters P-gp and BCRP as well.
(§2) That is, Caco-2 cells were seeded on a 96-well plate, cultured at 37° C. for 10 to 11 days in a CO2 incubator, and then a transcellular transport study was conducted. Then, a […] was calculated. The efflux ratio was calculated as the ratio of the mean values of Papp calculated from three measurements.

P-gp and BCRP = assay: as above; assay type: in vitro ADME; conditions: human, Caco-2
Experimental: as §1, §2

[3] = 2 h after standard meal vs fasted
[4] = 4 h after standard meal vs fasted
[5] = 8 h after high-fat meal vs fasted
[6] = formula #3, 2 h after light meal, mean (n = 16)
[7] = formula #3, 2 h after standard meal, mean (n = 16)
[8] = formula #3, 4 h after standard meal, mean (n = 16)
[9] = formula #3, 8 h after high-fat meal, mean (n = 16)
[10] = formula #3, fasted, mean (n = 16)

- change in the AUC in comparison with fasted ([1]; 2 h after light meal vs fasted): no decrease and →
- change in the Cmax in comparison with fasted ([1]; 2 h after light meal vs fasted): no decrease and →
- decrease in the AUC in comparison with fasted [1, 3]: (21% ↓)
- decrease in the Cmax in comparison with fasted [1, 3]: (45% ↓)
- Cmax Min ([1]; 2 hours after light meal): 388 ng/mL
- Cmax Max ([1]; 2 hours after light meal): 3237
- change in the AUC in comparison with fasted [1, 4]: no decrease and →
- change in the Cmax in comparison with fasted [1, 4]: no decrease and →
- Cmax Min ([1]; 4 hours after standard meal): 642 ng/mL
- Cmax Max ([1]; 4 hours after standard meal): 4286
- change in the AUC in comparison with fasted [1, 5]: no decrease and →
- change in the Cmax in comparison with fasted [1, 5]: no decrease and →
- Cmax Min ([1]; 8 hours after high-fat meal): 595 ng/mL
- Cmax Max ([1]; 8 hours after high-fat meal): 5270
- Cmax Min ([1]; fasted): 797 ng/mL
- Cmax Max ([1]; fasted): 4816
- AUC(0-inf) ([1]; 2 hours after light meal, analysis of variance, read-out: AUC0-∞ Least-square mean): 1880 ng·h/mL
- Cmax ([1]; 2 hours after light meal, analysis of variance, read-out: Cmax Least-square mean): 1660 ng/mL
- Cmax ([1]; 2 hours after light meal, read-out: Cmax Median): 1960 ng/mL
- AUC(0-inf) ([1]; 4 hours after standard meal, analysis of variance, read-out: AUC0-∞ Least-square mean): 1990 ng·h/mL
- Cmax ([1]; 4 hours after standard meal, analysis of variance, read-out: Cmax Least-square mean): 1760 ng/mL
- Cmax ([1]; 4 hours after standard meal, read-out: Cmax Median): 1740 ng/mL
- AUC(0-inf) ([1]; 8 hours after high-fat meal, analysis of variance, read-out: AUC0-∞ Least-square mean): 2120 ng·h/mL
- Cmax ([1]; 8 hours after high-fat meal, analysis of variance, read-out: Cmax Least-square mean): 2190 ng/mL
- Cmax ([1]; 8 hours after high-fat meal, read-out: Cmax Median): 2240 ng/mL
- Cmax ([1]; fasted and each postprandial administration alike, read-out: Cmax, median of values of each subject): ~2000 ng/mL
- Cmax ([1]; fasted and each postprandial administration alike, read-out: Cmax, range of values of each subject): 1000 to 5000 ng/mL
- AUC(0-inf) ([1]; fasted, analysis of variance, read-out: AUC0-∞ Least-square mean): 2070 ng·h/mL
- Cmax ([1]; fasted, analysis of variance, read-out: Cmax Least-square mean): 2020 ng/mL
- Cmax ([1]; fasted, read-out: Cmax Median): 1990 ng/mL
- Tmax [1, 6]: 0.41 h
- half-life [1, 6]: 7.31 h
- AUC(0-inf) ([1]; formula #3, 2 h after light meal, mean (n = 16), read-out: AUC0-∞): 1960 ng·h/mL
- Cmax ([1]; formula #3, 2 h after light meal, mean (n = 16), read-out: Cmax): 1900 ng/mL
- Tmax [1, 7]: 0.63 h
- half-life [1, 7]: 11.2 h
- AUC(0-inf) ([1]; formula #3, 2 h after standard meal, mean (n = 16), read-out: AUC0-∞): 1720 ng·h/mL
- Cmax ([1]; formula #3, 2 h after standard meal, mean (n = 16), read-out: Cmax): 1280 ng/mL
- Tmax [1, 8]: 0.44 h
- half-life [1, 8]: 9.05 h
- AUC(0-inf) ([1]; formula #3, 4 h after standard meal, mean (n = 16), read-out: AUC0-∞): 2070 ng·h/mL
- Cmax ([1]; formula #3, 4 h after standard meal, mean (n = 16), read-out: Cmax): 2020 ng/mL
- Tmax [1, 9]: 0.36 h
- half-life [1, 9]: 7.38 h
- AUC(0-inf) ([1]; formula #3, 8 h after high-fat meal, mean (n = 16), read-out: AUC0-∞): 2210 ng·h/mL
- Cmax ([1]; formula #3, 8 h after high-fat meal, mean (n = 16), read-out: Cmax): 2520 ng/mL
- Tmax [1, 10]: 0.38 h
- half-life [1, 10]: 8.17 h
- AUC(0-inf) ([1]; formula #3, fasted, mean (n = 16), read-out: AUC0-∞): 2160 ng·h/mL
- Cmax ([1]; formula #3, fasted, mean (n = 16), read-out: Cmax): 2320 ng/mL
- substrate for P-gp and BCRP [2]: not a substrate for P-gp and BCRP
- efflux ratio at 10 μmol/L (P-gp and BCRP; 10 μmol/L, no inhibitor): 0.9
- efflux ratio (P-gp and BCRP; in presence or absence of inhibitors): ≤ 2
Structure (SMILES): CC1=NN(c2ccccc2)C(=O)C1 [Edaravone, 3-methyl-1-phenyl-2-pyrazolin-5-one]
